{
  "source": "ChEMBL document CHEMBL1201862",
  "about": "“PubChem BioAssay data set” (2004)",
  "assay_in_all_cases": "inhibition of tumour cell growth, NCI panel, 48 h",
  "key": {"786-0": {"system": "786-0"}, "A498": {"system": "A498"}, "A549": {"system": "A549"}, "ACHN": {"system": "ACHN"}, "BT-549": {"system": "BT-549"}, "CAKI-1": {"system": "CAKI-1"}, "CCRF-CEM": {"system": "CCRF-CEM"}, "COLO 205": {"system": "COLO 205"}, "DU-145": {"system": "DU-145"}, "EKVX": {"system": "EKVX"}, "HCC 2998": {"system": "HCC 2998"}, "HCT-116": {"system": "HCT-116"}, "HCT-15": {"system": "HCT-15"}, "HL-60": {"system": "HL-60"}, "HOP-62": {"system": "HOP-62"}, "HOP-92": {"system": "HOP-92"}, "HT-29": {"system": "HT-29"}, "Hs-578T": {"system": "Hs-578T"}, "IGROV-1": {"system": "IGROV-1"}, "K562": {"system": "K562"}, "KM12": {"system": "KM12"}, "LOX IMVI": {"system": "LOX IMVI"}, "M14": {"system": "M14"}, "MCF7": {"system": "MCF7"}, "MDA-MB-231": {"system": "MDA-MB-231"}, "MDA-MB-435": {"system": "MDA-MB-435"}, "MDA-N": {"system": "MDA-N"}, "MOLT-4": {"system": "MOLT-4"}, "Malme-3M": {"system": "Malme-3M"}, "NCI-H226": {"system": "NCI-H226"}, "NCI-H23": {"system": "NCI-H23"}, "NCI-H460": {"system": "NCI-H460"}, "NCI-H522": {"system": "NCI-H522"}, "NCI/ADR-RES": {"system": "NCI/ADR-RES"}, "OVCAR-3": {"system": "OVCAR-3"}, "OVCAR-4": {"system": "OVCAR-4"}, "OVCAR-5": {"system": "OVCAR-5"}, "OVCAR-8": {"system": "OVCAR-8"}, "PC-3": {"system": "PC-3"}, "RPMI-8226": {"system": "RPMI-8226"}, "RXF 393": {"system": "RXF 393"}, "SF-268": {"system": "SF-268"}, "SF-295": {"system": "SF-295"}, "SF-539": {"system": "SF-539"}, "SK-MEL-28": {"system": "SK-MEL-28"}, "SK-MEL-2": {"system": "SK-MEL-2"}, "SK-MEL-5": {"system": "SK-MEL-5"}, "SK-OV-3": {"system": "SK-OV-3"}, "SN12C": {"system": "SN12C"}, "SNB-19": {"system": "SNB-19"}, "SNB-75": {"system": "SNB-75"}, "SR": {"system": "SR"}, "SW-620": {"system": "SW-620"}, "T47D": {"system": "T47D"}, "TK-10": {"system": "TK-10"}, "U-251": {"system": "U-251"}, "UACC-257": {"system": "UACC-257"}, "UACC-62": {"system": "UACC-62"}, "UO-31": {"system": "UO-31"}},
  "note": "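Grown in 96-well plates, cells were treated for 48 hours with each compound at five concentrations. Insufficient inhibition: endpoint recorded as highest concentration tested. GI50 is the concentration that inhibits growth by half.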 Activity calls are given as the source filed them. Cut-off read from the data, not from the text of the source: active = GI50 up to about 1.1 µM and inactive = higher.",
  "data": [
    {"smiles": "OCC1OC(c2scc3c(=S)[nH]cnc23)C(O)C1O", "note": "(centres undefined)", "values": [
      {"measurement": "GI50", "setting": "786-0", "value": "8.99 µM (inactive)"},
      {"measurement": "GI50", "setting": "A498", "value": "6.84 µM (inactive)"},
      {"measurement": "GI50", "setting": "A549", "value": "31.7 µM (inactive)"},
      {"measurement": "GI50", "setting": "ACHN", "value": "4.84 µM (inactive)"},
      {"measurement": "GI50", "setting": "BT-549", "value": "27.5 µM (inactive)"},
      {"measurement": "GI50", "setting": "CAKI-1", "value": "6.59 µM (inactive)"},
      {"measurement": "GI50", "setting": "CCRF-CEM", "value": "20.8 µM (inactive)"},
      {"measurement": "GI50", "setting": "COLO 205", "value": "11.2 µM (inactive)"},
      {"measurement": "GI50", "setting": "DU-145", "value": "0.859 µM (active)"},
      {"measurement": "GI50", "setting": "EKVX", "value": "76.2 µM (inactive)"},
      {"measurement": "GI50", "setting": "HCC 2998", "value": "7.03 µM (inactive)"},
      {"measurement": "GI50", "setting": "HCT-116", "value": "5.3 µM (inactive)"},
      {"measurement": "GI50", "setting": "HCT-15", "value": 4.1, "unit": "µM"},
      {"measurement": "GI50", "setting": "HL-60", "value": "3.63 µM (inactive)"},
      {"measurement": "GI50", "setting": "HOP-62", "value": "10.7 µM (inactive)"},
      {"measurement": "GI50", "setting": "HOP-92", "value": "0.796 µM (active)"},
      {"measurement": "GI50", "setting": "HT-29", "value": "5.12 µM (inactive)"},
      {"measurement": "GI50", "setting": "Hs-578T", "value": "1.77 µM (inactive)"},
      {"measurement": "GI50", "setting": "IGROV-1", "value": "9.62 µM (inactive)"},
      {"measurement": "GI50", "setting": "K562", "value": "13.6 µM (inactive)"},
      {"measurement": "GI50", "setting": "KM12", "value": "24.5 µM (inactive)"},
      {"measurement": "GI50", "setting": "LOX IMVI", "value": "2.86 µM (inactive)"},
      {"measurement": "GI50", "setting": "M14", "value": "6.53 µM (inactive)"},
      {"measurement": "GI50", "setting": "MCF7", "value": "2.8 µM (inactive)"},
      {"measurement": "GI50", "setting": "MDA-MB-231", "value": "4.61 µM (inactive)"},
      {"measurement": "GI50", "setting": "MDA-MB-435", "value": "20.4 µM (inactive)"},
      {"measurement": "GI50", "setting": "MDA-N", "value": "15 µM (inactive)"},
      {"measurement": "GI50", "setting": "MOLT-4", "value": "4.25 µM (inactive)"},
      {"measurement": "GI50", "setting": "Malme-3M", "value": "15.8 µM (inactive)"},
      {"measurement": "GI50", "setting": "NCI-H226", "value": "16 µM (inactive)"},
      {"measurement": "GI50", "setting": "NCI-H23", "value": "21 µM (inactive)"},
      {"measurement": "GI50", "setting": "NCI-H460", "value": "8.22 µM (inactive)"},
      {"measurement": "GI50", "setting": "NCI-H522", "value": "15.8 µM (inactive)"},
      {"measurement": "GI50", "setting": "NCI/ADR-RES", "value": "3.05 µM (inactive)"},
      {"measurement": "GI50", "setting": "OVCAR-3", "value": "2.19 µM (inactive)"},
      {"measurement": "GI50", "setting": "OVCAR-4", "value": "4.01 µM (inactive)"},
      {"measurement": "GI50", "setting": "OVCAR-5", "value": "26.1 µM (inactive)"},
      {"measurement": "GI50", "setting": "OVCAR-8", "value": "1.24 µM (inactive)"},
      {"measurement": "GI50", "setting": "PC-3", "value": "2.53 µM (inactive)"},
      {"measurement": "GI50", "setting": "RPMI-8226", "value": "9.31 µM (inactive)"},
      {"measurement": "GI50", "setting": "RXF 393", "value": "11.9 µM (inactive)"},
      {"measurement": "GI50", "setting": "SF-268", "value": "21.2 µM (inactive)"},
      {"measurement": "GI50", "setting": "SF-295", "value": "29 µM (inactive)"},
      {"measurement": "GI50", "setting": "SF-539", "value": "8.81 µM (inactive)"},
      {"measurement": "GI50", "setting": "SK-MEL-28", "value": "74 µM (inactive)"},
      {"measurement": "GI50", "setting": "SK-MEL-2", "value": "13.4 µM (inactive)"},
      {"measurement": "GI50", "setting": "SK-MEL-5", "value": "22.7 µM (inactive)"},
      {"measurement": "GI50", "setting": "SK-OV-3", "value": "2.54 µM (inactive)"},
      {"measurement": "GI50", "setting": "SN12C", "value": "6.15 µM (inactive)"},
      {"measurement": "GI50", "setting": "SNB-19", "value": "72.3 µM (inactive)"},
      {"measurement": "GI50", "setting": "SNB-75", "value": "2.32 µM (inactive)"},
      {"measurement": "GI50", "setting": "SR", "value": "29.1 µM (inactive)"},
      {"measurement": "GI50", "setting": "SW-620", "value": "6.76 µM (inactive)"},
      {"measurement": "GI50", "setting": "T47D", "value": "0.82 µM (active)"},
      {"measurement": "GI50", "setting": "TK-10", "value": "5.45 µM (inactive)"},
      {"measurement": "GI50", "setting": "U-251", "value": "> 93.3 µM (inactive)"},
      {"measurement": "GI50", "setting": "UACC-257", "value": "42.4 µM (inactive)"},
      {"measurement": "GI50", "setting": "UACC-62", "value": "8.65 µM (inactive)"},
      {"measurement": "GI50", "setting": "UO-31", "value": "6.08 µM (inactive)"}
    ]}
  ]
}
